US9029383B2, “Methods of treatment of skin ulcers” (The Trustees Of The University of Pennsylvania, priority 2007, dated 2015)
“Also recorded” adds a separate entry of the source.

Tests used:
[1] = tested on: DM/HC pigs (skin abscess); assay: Skin abscess occurrence in diabetic/hypercholesterolemic (DM/HC) pig model; format: in vivo; settings: for Development of skin abscess over the treatment period: DM/HC pigs treated for 6 months; for Further or recurring abscess after initiation of daily inhibitor treatment in pigs that already had an abscess: pigs #948 and #963, daily single dose
Protocol: A diabetic/diabetic hypercholestrolemic pig model (DM/HC) was developed that mimics human-like diabetes and human-like atherosclerosis. Farm pigs weighing 25-30 kg and aged ˜4 months were made diabetic with a single intravenous injection of 125 mg/kg of streptozotocin (Sicor Pharmaceuticals, Irvine, Calif.). After stabilized for 1-2 weeks, the animals with elevated levels of plasma glucose (>150 mg/dl) were fed with atherogenic (high-fat) diet as shown in Table 1 (Animal Specialties, Quakertown, Pa.) to achieve a cholesterol level of approximately 250-800 mg/dl.
For the 0.5% cholesterol diet the components are similar with the exception of 0.5% cholesterol and 20% lard. The animals were Yorkshire pigs that were castrated males at the age of […] and were obtained from Archer Farms, Darlington, Md. These feeds were prepared by Animal Specialties and Provisions, LLC, Quakertown, Pa. USA.
On days 1-2, animals were fed normal chow, followed by on days 3-14 animals were fed a diet of 0.5% cholesterol, 2% lard and on day 14, cholesterol levels were measured and the diet adjusted accordingly to increase to 2% cholesterol, 10% lard if cholesterol is <300 mg/dl. Following induction of DM/HC, cholesterol was measured until cholesterol levels are stable between 300 and 800 mg/dl, and following cholesterol stabilization, cholesterol was measured monthly. If cholesterol levels were unstable following initial stabilization phase, the diet of the animal was returned to the initial two-week measurement schedule. Monthly cholesterol levels were determined, including levels of total cholesterol, LDL, HDL, VLDL and triglycerides.
(§1) At one month after stabilization of cholersterol at 250-800 mg/dl, the animals were randomized into two experimental groups, DM/HC (hyperglycemia and hypercholesterolemia) group with no treatment and treatment group (10 mg/kg/day of SB-480848, also referred to as 1-(N-(2-(diethylamino)ethyl)-N-(4-(4-trifluoromethylphenyl)benzyl)-aminocarbonylmethyl)-2-(4-fluorobenzyl)thio-5,6-trimethylenepyrimidin-4-one). The animals were then placed into two separate rooms with control animals in one room and treated animals in the other room in order to ensure that no drug would be found in the control animals. The animals were visually inspected twice daily, the visual inspections being between 8-10 hours apart, for skin abscess, especially in the leg and foot. To be considered an abscess, the minimal abscess size was 1 mm with redness in the surrounding area. When abscesses were detected, treatment was applied. Treatment comprise assessing the size and depth of abscess, draining and cleaning the abscess of dead tissue and cells, washing with Betadine, drying and bandaging with sterile dressing, and oral regime of antibiotics. Treatment was applied daily till the infection in the open sore was cleared (absence of pus) and the open sore healed by shrinkage in size and the opening was completely closed. Cultures of the abscess were carried out to determine the pathogen responsible for the infection. […]
Two diabetic/hypercholesterolemic groups were evaluated: 1. […] In addition blood cholesterol levels were maintained between 300 and 800 mg/dl in experimental animals, this range having been determined to provide a better test model. Blood cholesterol levels were monitored in all animals on a bimonthly basis, as shown in Table 4 and adjustments were made to the fat content of the feed accordingly, as shown in Table 2. […]

[2] = Body weight and behaviour of DM/HC pigs during the study period; format: in vivo, pig
Protocol: as §1

CCN(CC)CCN(Cc1ccc(-c2ccc(C(F)(F)F)cc2)cc1)C(=O)Cn1c(SCc2ccc(F)cc2)nc(=O)c2c1CCC2 [SB-480848, 1-(N-(2-(Diethylamino)ethyl)-N-(4-(4-trifluoromethylphenyl)benzyl)aminocarbonylmethyl)-2-(4-fluorobenzyl)thio-5,6-trimethylenepyrimidin-4-one]
Development of skin abscess over the treatment period [1]: no pig developed any skin abscesses
Development of skin abscess over the treatment period ([1]; listed as Lp-PLA2 inhibitor): no one developed any abscess
Further or recurring abscess after initiation of daily inhibitor treatment in pigs that already had an abscess [1]: No further abscess developed; also recorded: remained skin abscesses-free
Further or recurring abscess after initiation of daily inhibitor treatment in pigs that already had an abscess ([1]; listed as Lp-PLA2 inhibitor): No further abscess developed
Average healing time of treated abscesses ([1]; pigs #948 and #963 of the treated group, abscesses developed before start of inhibitor, standard wound care): 1-2 weeks
Responsiveness and activity compared to control animals ([2]; observed during the study period): more responsive to external stimuli
Weight ([2]; treated animals at end of study, from a baseline of 26.9 kg, control 50.9 kg from 30.3 kg): 62.5 kg
